# Measured values from patent publication US20070292351A1, “Assay for efficacy of histone deacetylase inhibitors” (Methylgene, Inc., priority 2006, published 2007).
# How the values were obtained:
# IL-6 and IL-8 = assay: Cytokine antibody array of patient plasma; format: in vivo, human; conditions: two leukemia patients treated orally; cytokine antibody array (FIG. 16)
# Method: FIG. 16 Induction of IL-6 and IL-8 expression in plasma from two leukemia patients treated with MGCD0103 orally in vivo, as determined by cytokine antibody array.
# Human patients with either solid tumors or leukemia/MDS diseases were enrolled in phase I studies with consensus forms. MGCD0103 were dosed into patients orally every other day (day 1, day 3, day 5 […]). Blood samples were withdrawled by using the Vacutainer sodium-heparin blood collection tubes (Becton Dickinson Laboratories, Franklin Lakes, N.J.) and shipped to the test site within 24 hours on ice-pack. Baseline samples were drawn immediately prior to the first drug dose, while the 24 hour samples were drawn at 24 hours post the first drug dose. The 48 hours samples were drawn at 48 hours post the first dose. For the 1 week samples, blood was drawn 72 hours after day 5 dose (3 accumulated doses during week 1).
# 10 ml blood from patients were centrifuged at 2500 RPM for 10 min at 10° C. […] The levels of cytokines in the plasma were determined using the TranSignal Human Cytokine Antibody Array 1.0 (Cat#MA6120, Panomics Inc. Redwood City, Calif.) following the manufacturer's instructions. […] Blots were developed by autoradiography, scanned and quantitated using the Cyclone Software. Data was calculated, plotted using Excel and expressed as fold induction from Day 8 following treatment over baseline Day 0 samples.
# [1] = test system: implanted human NSCLC H460 tumors; assay: Semi-quantitative PCR of p21 and MT3 in H460 tumors in nude mice; format: in vivo, nude mice (Balb/c); conditions: 100 mg/kg oral
# Method: FIG. 5 Induction of MT3 and p21 in implanted human NSCLC H460 tumors in vivo in nude mice. Nude mice (Balb/c) bearing human H460 tumors were treated with 100 mg/kg MGCD0103 or 0.5% HEC (Vehicle) by oral administration. After 6 h or 24 h, three mice from each group were sacrificed, their tumors harvested and analyzed. Panel A: p21 and MT3 RNA levels quantified by conventional semi-quantitative PCR, normalized to β-actin. Panel B: H4Ac level detected by immunoblot analysis, normalized to total histones.
# RNA was extracted from 8×10^6 cells using the Qiagen RNeasy Mini kit (cat#74106, Qiagen, Missisauga Ont.) following the manufacturer's instructions. RT reaction was performed using the Expand Reverse Transcriptase kit from Roche (Cat#1 785 834 Roche Applied Biosciences, Laval, Que) with 1 μg total RNA together with 1 μl oligo(dT) primer (cat#y01212, Invitrogen-Canada, Burlington, Ont). cDNA was synthesized using an Eppendorf Mastercycler gradient PCR apparatus (Brinkmann Instruments Canada LTD., Mississauga, Ontario), using a two cycle protocol. For the 1st cycle reaction mixture (0.5 μl H2O, 4 μl of 5× Buffer, 2 μl DTT, 2 ul of 10 mM dNTPs, 0.5 μl RNAsin (cat#N211B, Promega, Fisher Scientific, Whitby, Ont.) and […] of the Expand Reverse Transcriptase (Cat#1785834, Roche, Laval, Quebec)) was incubated at 65° C. for 10 minutes and then set on ice. A second cycle was performed at 42° C. for 1 hour. The resulting cDNA products were kept at 4° C. until used.
# One ul of the resulting cDNA was used for every amplification reaction with 18.9 ul H2O, 1.25 ul of 10 mM dNTPs, 0.5 ul of each primer pair, 2.5 ul of 10× Buffer. The PCR reaction was carried out in an Eppendorf Mastercycler gradient. The sequences of the primers used for the amplification of selected biomarkers, as well as the details of the PCR reaction cycles are featured below. All buffers came from Expand Long Template PCR system (Roche, Laval, Quebec, Cat#11681842001). All primers were synthesized by Invitrogen (Invitrogen-Canada, Burlington, Ont.) […]
# human RPMI8226 cells = assay: IL-6 transcription in RPMI8226 cells; format: cell-based; conditions: 24 hours (FIG. 14)
# Method: Quantitative PCR with SYBR Green I detection with Mastercycler® ep realplex (Eppendorf) was performed using LightCycler® 480 SYBR Green I Master (Roche Diagnostics). SYBR Green I assays were performed with 600 nM primers. All other reaction conditions were as described by the manufacturer. Amplification conditions were 5 minutes of initial denaturation at 95° C., followed by 40 cycles of each 15 seconds at 95° C., 15 seconds at 63.4° C., 20 seconds at 68° C., a melting curve from 60° C. to 95° C. was recorded. Quantification was performed using Pfaffl method, a relative quantification method in real-time PCR (Nucleic Acids Research 2001 29:2002-2007). Primers were synthesized by Invitrogen (Invitrogen-Canada, Burlington, Ont.).
smiles,measurement,setting,value
Nc1ccccc1NC(=O)c1ccc(CNc2nccc(-c3cccnc3)n2)cc1 [MGCD0103],induction of IL-6 and IL-8 expression in plasma,IL-6 and IL-8,induction
same,"persistence of gene induction (p21, MT3) in tumors",[1],at least 24 h
same,induction of MT3 RNA in tumors,[1]; 6 h or 24 h (FIG. 5A),induction
same,induction of p21 RNA in tumors,[1]; 6 h or 24 h (FIG. 5A),induction
same,dose-dependent induction of IL-6 transcription,human RPMI8226 cells,dose-dependent induction
